Laboratory results taken from article PMC7696755 (2020).

Tests used:
[1] = tested on: AT-DNA (DNA, duplex) TATATATATATATATATATATATATATATATATATATATA; test: UV/Vis absorption titration (hypochromism); settings: 137 mM NaCl, 2.7 mM KCl, PBS (10 mM phosphate), pH 7.4, room temperature, per base pair, intercalation, data not shown
[2] = tested on: AT-DNA (DNA, duplex) TATATATATATATATATATATATATATATATATATATATA; test: UV/Vis absorption titration (302 nm, hypochromism); settings: 137 mM NaCl, 2.7 mM KCl, PBS (10 mM phosphate), pH 7.4, room temperature, per base pair, 15 µM 8-MOP, intercalation, before irradiation

KD [1] [µM] | KD [2] [mM] | SMILES
180 | – | COc1c2ccoc2cc2oc(=O)ccc12
– | 1.1 | COc1c2occc2cc2ccc(=O)oc12
